The record followed here is US6541191B2, “Photographic processing solutions” (Eastman Kodak Company, priority 1996, dated 2003).

Several values for one entry are separate records, joined by “and”; a condition that tells them apart may be missing. Identical values can stand only once. Like-named read-outs stand apart in the source and are kept apart here.

Assay type in all cases: physicochemical
The nature of data set [1]: Solubility of processing compounds (stated in the description).
Data set [2] can be described thus: Keeping test of continuously aerated developers with limited-solubility antioxidants, analysed for CD3 content (Example 2). Particulars: about 0.029 molar antioxidant added, developer pH 10.05; rest solid swirling in solution. The protocol: The compounds CSD and MCH were compared with diethyl hydroxylamine at equimolar levels in a developer of the composition shown in Table 2.
The antioxidant level was equivalent to 3.0 ml/l diethyl hydroxylamine (85%); which is about 0.029 molar. The three developers were as follows;
These developers were placed in 500 ml measuring cylinders and stirred continuously with magnetic stirrers to create a vortex depth of about 5 mm in each case in order to ensure continuous aeration.

A short description of data set [3]: Equilibrium level of MCH in circulated potassium carbonate solution on dilution or evaporation (Example 1). Particulars: potassium carbonate pH 10.5. The protocol:
A circulation system of about 500 ml capacity was set up in which solid N-monocyclohexyl hydroxylamine (MCH) was retained behind a removable filter paper filter. The solution circulated was potassium carbonate at pH=10.5. The solution was left to circulate for 30 minutes and the amount of MCH in solution was determined by removing the paper filter that retained the MCH, drying and weighing it. […] The volume was increased by increments of 10%. In a second part of the experiment most of the solution was removed from the system and evaporated to reduce its volume, again in increments of 10%. Solid MCH came out of solution and was collected on the filter and weighed as before.

By solubility is commonly meant the concentration that dissolves in the medium under given conditions. Turning to `CCCNc1nc(NO)nc(NO)n1` [CSD, 4,5-dihydroxylamino-2-propylamino-1,3,5-triazine], the solubility in data set [1] is 500 µg/mL to 1000 µg/mL and ~5000 µM.
In the case of `CCN(O)CC` [Diethyl hydroxylamine, reference compound], in data set [1], the “solubility in water” value is given as “essentially miscible in all proportions with water”. Also, the “share of the antioxidant in solution in the developer” value in data set [2] is given as “completely in solution”.
Consider `ONC1CCCCC1` [MCH, Mono-N-cyclohexylhydroxylamine], for which the solubility in data set [1] (aqueous buffer, at developer pH (10.0)) is 3900 µg/mL to 4000 µg/mL and ~26000 µM. Besides, the “share of the antioxidant in solution in the developer” value in data set [2] was “About 90%”. Moreover, in data set [3], the “time for the MCH level to adjust itself to the initial level after dilution or evaporation” value was no more than 30 min. The “MCH in Solution” value in data set [3] (volume 70 % relative to initial (evaporation)) is 4.03 g/L; in data set [3] (volume 80 % relative to initial (evaporation)) it was 3.92 g/L; in data set [3] (volume 90 % relative to initial (evaporation)), 3.88 g/L; in data set [3] (volume 100 % relative to initial, 30 minutes), 3.80 g/1; in data set [3] (volume 110 % relative to initial, 30 minutes), 3.81 g/L; in data set [3] (volume 120 % relative to initial, 30 minutes), 3.87 g/L. The “MCH in Solution” value came to 4.11 g/L in data set [3] (volume 130 % relative to initial, 30 minutes); 4.05 g/L in data set [3] (volume 140 % relative to initial, 30 minutes); 3.96 g/L in data set [3] (volume 150 % relative to initial, 30 minutes).
On to `ON(Cc1ccccc1)Cc1ccccc1` [dibenzyl-hydroxylamine, reference compound], for which the “solubility in water” value in data set [1] is recorded as “almost entirely insoluble in water”.
Consider `CC(C)(C)NO` [mono-t-butyl-hydroxylamine, reference compound], for which the “solubility in water” value in data set [1] was “too soluble”.
